Molecular target: Dephosphorylated BTK (Homo sapiens, UniProt Q06187)
Assay: Test of activity inhibition against dephosphorylated BTK (mobility shift assay)

Dephosphorylated BTK, sequence (Q06187 whole entry): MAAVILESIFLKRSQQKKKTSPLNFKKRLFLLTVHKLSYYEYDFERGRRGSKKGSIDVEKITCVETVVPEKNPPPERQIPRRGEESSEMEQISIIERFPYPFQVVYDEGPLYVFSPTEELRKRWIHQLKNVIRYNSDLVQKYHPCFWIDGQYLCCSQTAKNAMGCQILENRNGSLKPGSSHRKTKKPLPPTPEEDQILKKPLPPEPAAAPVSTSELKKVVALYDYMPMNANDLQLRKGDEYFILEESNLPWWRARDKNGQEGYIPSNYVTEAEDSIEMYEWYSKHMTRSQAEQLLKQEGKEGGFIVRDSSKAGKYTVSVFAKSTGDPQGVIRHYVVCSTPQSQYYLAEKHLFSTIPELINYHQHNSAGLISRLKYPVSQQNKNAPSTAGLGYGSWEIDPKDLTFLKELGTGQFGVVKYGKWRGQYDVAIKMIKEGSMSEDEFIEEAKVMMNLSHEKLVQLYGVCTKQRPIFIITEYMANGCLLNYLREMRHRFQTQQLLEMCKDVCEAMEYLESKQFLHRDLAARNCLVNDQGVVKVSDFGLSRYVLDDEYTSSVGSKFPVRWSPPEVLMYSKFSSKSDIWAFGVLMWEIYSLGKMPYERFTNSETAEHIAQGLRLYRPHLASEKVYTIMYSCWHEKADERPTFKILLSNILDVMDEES

IC50 | Structure (SMILES)
0.8 nM | CC(C)(C)c1ccc(C(=O)Nc2cccc(-c3nc(N)nc(Nc4ccc(N5CCCC(O)C5)cc4)n3)c2CO)cc1 (stereo not shown) [Example 125, N-[3-(4-Amino-6-{[4-(3-hydroxypiperidin-1-yl)phenyl]amino}-1,3,5-triazin-2-yl)-2-(hy-droxymethyl)phenyl]-4-(tert-butyl)benzamide]
0.5 nM | CC(C)(C)c1ccc(C(=O)Nc2cccc(-c3nc(N)nc(Nc4ccc(N5CCNCC5)cc4)n3)c2CO)cc1 [Example 126, N-[3-(4-Amino-6-{[4-(piperazin-1-yl)phenyl]amino}-1,3,5-triazin-2-yl)-2-(hydroxymeth-yl)phenyl]-4-(tert-butyl)benzamide]
0.5 nM | Nc1nc(Nc2ccc(N3CCOC(CO)C3)cc2)nc(-c2cccc(NC(=O)c3cc4c(s3)CCCC4)c2CO)n1 (stereo not shown) [Example 127, N-{3-[4-Amino-6-({4-[2-(hydroxymethyl)morpho-lino]phenyl}amino)-1,3,5-triazin-2-yl]-2-(hydroxymethyl)phenyl}-4,5,6,7-tetrahydro-benzo[b]thiophene-2-carboxamide]
0.6 nM | Nc1nc(Nc2ccc(N3CCC(O)CC3)cc2)nc(-c2cccc(NC(=O)c3cc4c(s3)CCCC4)c2CO)n1 [Example 128, N-[3-(4-Amino-6-{[4-(4-hydroxypiperidin-1-yl)phenyl]amino}-1,3,5-triazin-2-yl)-2-(hy-droxymethyl)phenyl]-4,5,6,7-tetrahydrobenzo [b]thiophene-2-carbox-amide]
0.6 nM | COCCN(CCOC)Cc1ccc(Nc2nc(N)nc(-c3cccc(NC(=O)c4cc5c(s4)CCCC5)c3CO)n2)cc1 [Example 129, N-(3-{4-Amino-6-[(4-{[bis (2-methoxyethyl)a-mino]methyl}phenyl)ami-no]-1,3,5-triazin-2-yl}-2-(hydroxymethyl)phenyl)-4,5,6,7-tetra-hydrobenzo[b]thiophene-2-carboxamide]
0.5 nM | CN1CCN(C)C(c2ccc(Nc3nc(N)nc(-c4cccc(NC(=O)c5cc6c(s5)CCCC6)c4CO)n3)cc2)C1=O (stereo not shown) [Example 130, N-[3-(4-Amino-6-{[4-(1,4-dimethyl-3-oxopipe-razin-2-yl)phenyl]ami-no}-1,3,5-triazin-2-yl)-2-(hydroxymethyl)phenyl]-4,5,6,7-tetra-hydrobenzo[b]thiophene-2-carboxamide]
0.4 nM | COCCOc1ccc(Nc2nc(N)nc(-c3cccc(NC(=O)c4cc5c(s4)CCCC5)c3CO)n2)cc1OCCOC [Example 131, N-[3-(4-Amino-6-{[3,4-bis(2-methoxyethoxy)phenyl]amino}-1,3,5-tri-azin-2-yl)-2-(hydroxy-methyl)phenyl]-4,5,6,7-tetrahydrobenzo[b] thiophene-2-carboxamide]
0.5 nM | Nc1nc(Nc2ccc(CN3CCOCC3)cc2)nc(-c2cccc(NC(=O)c3cc4c(s3)CCCC4)c2CO)n1 [Example 132, N-[3-(4-Amino-6-{[4-(mor-pholinomethyl)phe-nyl]amino}-1,3,5-triazin-2-yl)-2-(hydroxymeth-yl)phenyl]-4,5,6,7-tetrahydrobenzo[b]thio-phene-2-carboxamide]
0.4 nM | Nc1nc(Nc2ccc(Cn3ccnc3)cc2)nc(-c2cccc(NC(=O)c3cc4c(s3)CCCC4)c2CO)n1 [Example 133, N-{3-[4-({4-[(1H-Imida-zol-1-yl)methyl]phe-nyl}amino)-6-amino-1,3,5-triazin-2-yl]-2-(hy-droxymethyl)phenyl}-4,5,6,7-tetrahydroben-zo[b]thiophene-2-carboxamide]
0.9 nM | COCCOc1ccc(Nc2nc(N)nc(-c3cccc(NC(=O)c4cc5c(s4)CCCC5)c3CO)n2)cc1 [Example 134, N-[3-(4-Amino-6-{[4-(2-methoxyethoxy)phenyl]amino}-1,3,5-triazin-2-yl)-2-(hydroxymeth-yl)phenyl]-4,5,6,7-tetra-hydrobenzo[b]thio-phene-2-carboxamide]
1.3 nM | CN(C)CCCOc1ccc(Nc2nc(N)nc(-c3cccc(NC(=O)c4cc5c(s4)CCCC5)c3CO)n2)cc1 [Example 135, N-{3-[4-Amino-6-({4-[3-(dimethylamino)prop-oxy]phenyl}amino)-1,3,5-triazin-2-yl]-2-(hy-droxymethyl)phenyl}-4,5,6,7-tetrahydro-benzo[b]thiophene-2-carboxamide]
1.3 nM | Nc1nc(Nc2ccc(O)cc2)nc(-c2cccc(NC(=O)c3cc4c(s3)CCCC4)c2CO)n1 [Example 136, N-(3-{4-Amino-6-[(4-hy-droxyphenyl)amino]-1,3,5-triazin-2-yl}-2-(hydroxymethyl)phenyl)-4,5,6,7-tetrahydro benzo[b]thiophene-2-carboxamide]
1.7 nM | Nc1nc(Nc2ccc(OCCN3CCOCC3)cc2)nc(-c2cccc(NC(=O)c3cc4c(s3)CCCC4)c2CO)n1 [Example 138, N-[3-(4-Amino-6-{[4-(2-morpholinoethoxy)phe-nyl]amino}1,3,5-tri-azin-2-yl)-2-(hydroxy-methyl)phenyl]-4,5,6,7-tetrahydrobenzo[b]thio-phene-2-carboxamide]
1.6 nM | CC1CCc2sc(C(=O)Nc3cccc(-c4nc(N)nc(Nc5ccc(N6CCOCC6)cc5)n4)c3CO)cc2C1 (stereo not shown) [Example 139, N-(3-{4-Amino-6-[(4-morpholinophenyl)amino]-1,3,5-triazin-2-yl}-2-(hydroxymethyl)phe-nyl)-5-methyl-4,5,6,7-tetrahydrobenzo[b] thiophene-2-carboxamide]
1.7 nM | CC(C)(C)c1ccc(C(=O)Nc2cccc(-c3nc(N)nc(Nc4ccc5[nH]ncc5c4)n3)c2CO)cc1 [Example 140, N-(3-{4-[(1H-Indazol-5-yl)amino]-6-amino-1,3,5-triazin-2-yl}-2-(hydroxymethyl)phenyl)-4-(tert-butyl)benzamide]
1.2 nM | CC(C)(C)c1ccc(C(=O)Nc2cccc(-c3nc(N)nc(Nc4ccc5[nH]c(=O)[nH]c5c4)n3)c2CO)cc1 [Example 141, N-(3-{4-Amino-6-[(2-oxo-2,3-dihydro-1H-ben-zo[d]imidazol-5-yl)ami-no]-1,3,5-triazin-2-yl}-2-(hydroxymethyl)phenyl)-4-(tert-butyl) benzamide]
3.1 nM | COC(=O)c1cccc(Nc2nc(N)nc(-c3cccc(NC(=O)c4ccc(C(C)(C)C)cc4)c3CO)n2)c1 [Example 142, Methyl 3-[(4-amino-6-{3-[4-(tert-butyl)benzamido]-2-(hydroxymethyl)phe-nyl}-1,3,5-triazin-2-yl)amino]benzoate]
0.9 nM | Nc1nc(Nc2ccc(N3CCCC(O)C3)cc2)nc(-c2cccc(NC(=O)c3cc4c(s3)CCCC4)c2CO)n1 (stereo not shown) [Example 143, N-[3-(4-Amino-6-{[4-(3-hydroxypiperidin-1-yl)phenyl]amino}-1,3,5-triazin-2-yl)-2-(hy-droxymethyl)phenyl]-4,5,6,7-tetrahydrobenzo [b]thiophene-2-carbox-amide]
1.9 nM | CC(C)(C)c1ccc(C(=O)Nc2cccc(-c3nc(N)nc(Nc4ccc5nc[nH]c5c4)n3)c2CO)cc1 [Example 144, N-(3-{4-[(1H-Benzo[d]imidazol-6-yl)amino]-6-amino-1,3,5-triazin-2-yl}-2-(hydroxymeth-yl)phenyl)-4-(tert-butyl)benzamide]
1.8 nM | Nc1nc(Nc2ccc(N3CCOCC3)cc2)nc(-c2cccc(NC(=O)c3ccc(C4CC4)cc3F)c2CO)n1 [Example 145, N-(3-{4-Amino-6-[(4-morpholinophenyl)amino]-1,3,5-triazin-2-yl}-2-(hydroxymethyl)phe-nyl)-4-cyclopropyl-2-fluorobenzamide]
0.4 nM | CN1CCN(c2ccc(Nc3nc(N)nc(-c4cccc(NC(=O)c5ccc(C(C)(C)C)cc5)c4CO)n3)cc2)CC1 [Example 146, N-[3-(4-Amino-6-{[4-(4-methylpiperazin-1-yl)phenyl]amino}-1,3,5-triazin-2-yl)-2-(hy-droxymethyl)phenyl]-4-(tert-butyl)benzamide]
0.3 nM | Nc1nc(Nc2ccc(N3CCNCC3)cc2)nc(-c2cccc(NC(=O)c3cc4c(s3)CCCC4)c2CO)n1 [Example 147, N-[3-(4-Amino-6-{[4-(piperazin-1-yl)phenyl]amino}-1,3,5-triazin-2-yl)-2-(hydroxymeth-yl)phenyl]-4,5,6,7-tetra-hydrobenzo[b]thio-phene-2-carboxamide]
0.8 nM | CC(C)(C)c1ccc(C(=O)Nc2cccc(-c3nc(N)nc(Nc4ccc(CC#N)cc4)n3)c2CO)cc1 [Example 148, N-[3-(4-Amino-6-{[4-(cyano-methyl)phenyl]ami-no}-1,3,5-triazin-2-yl)-2-(hydroxymethyl)phenyl]-4-(tert-butyl) benzamide]
0.5 nM | CC(C)(C)c1ccc(C(=O)Nc2cccc(-c3nc(N)nc(Nc4ccc(C(N)=O)cc4)n3)c2CO)cc1 [Example 149, N-(3-{4-Amino-6-[(4-carbamoylphenyl)amino]-1,3,5-triazin-2-yl}-2-(hydroxymethyl)phe-nyl)-4-(tert-butyl) benzamide]
0.8 nM | CC(C)(C)c1ccc(C(=O)Nc2cccc(-c3nc(N)nc(Nc4ccc(OCCn5cccc5)cc4)n3)c2CO)cc1 [Example 150, N-{3-[4-({4-[2-(1H-Pyr-rol-1-yl)ethoxy]phe-nyl}amino)-6-amino-1,3,5-triazin-2-yl]-2-(hy-droxymethyl)phenyl}-4-(tert-butyl)benzamide]
1.3 nM | CC(C)(C)c1ccc(C(=O)Nc2cccc(-c3nc(N)nc(Nc4ccc(OCCOCCO)cc4)n3)c2CO)cc1 [Example 151, N-{3-[4-Amino-6-({4-[2-(2-hydroxyethoxy)eth-oxy]phenyl}amino)-1,3,5-triazin-2-yl]-2-(hy-droxymethyl)phenyl}-4-(tert-butyl)benzamide]
1.2 nM | CC(C)(C)c1ccc(C(=O)Nc2cccc(-c3nc(N)nc(Nc4ccc(OCCN5CCCC5)cc4)n3)c2CO)cc1 [Example 152, N-{3-[4-Amino-6-({4-[2-(pyrrolidin-1-yl)eth-oxy]phenyl}amino)-1,3,5-triazin-2-yl]-2-(hy-droxymethyl)phenyl}-4-(tert-butyl)benzamide]
4.9 nM | CC(C)(C)c1ccc(C(=O)Nc2cccc(-c3nc(N)nc(Nc4cccc(C(=O)O)c4)n3)c2CO)cc1 [Example 153, 3-[(4-Amino-6-{3-[4-(tert-butyl)benzamido]-2-(hydroxymethyl)phe-nyl}-1,3,5-triazin-2-yl)amino]benzoic acid]

Source: patent US20150011751A1, “NOVEL TRIAZINE DERIVATIVE” (CARNA BIOSCIENCES, INC., priority 2012, published 2015)
